Test results: patent US11285219B2, “Peptide-oligourea hybrid compounds” (UREKA SARL, priority 2019, dated 2022)
Where two headings read alike, the source gives them in different places. Numbered stars: 1 amine (or outer) side, 2 acyl side, 3 side chain; on linkers, the order of the positions; unused ones are H or OH. Bridge positions count the residues as written; N and C are the ends. Peptide text beside a SMILES is read from it. I, II: the chains in the order shown. X1 = C[C@@H](CNC(=O)N[C@@H](C)CNC(=O)[*:2])NC(=O)NC[C@H](C)N[*:1]

How the values were obtained:
[1] = molecular target: T1, mouse GLP-1 receptor endogenously expressed in βTC6 cells (Mus musculus, UniProt O35659); assay: cAMP production functional assay (HTRF), agonist activity at GLP-1R; format: cell-based; conditions: for Potency (%), percentage of potency (cAMP production) compared to GLP-1-G^2: Table 2; for Potency (%), percentage of potency compare to GLP-1-G^2: Table 1; for EC50: read-out: EC50 (nM), GLP-1R potency
T1 construct: host or cells: βTC6 cells
T1 sequence (O35659 22-463): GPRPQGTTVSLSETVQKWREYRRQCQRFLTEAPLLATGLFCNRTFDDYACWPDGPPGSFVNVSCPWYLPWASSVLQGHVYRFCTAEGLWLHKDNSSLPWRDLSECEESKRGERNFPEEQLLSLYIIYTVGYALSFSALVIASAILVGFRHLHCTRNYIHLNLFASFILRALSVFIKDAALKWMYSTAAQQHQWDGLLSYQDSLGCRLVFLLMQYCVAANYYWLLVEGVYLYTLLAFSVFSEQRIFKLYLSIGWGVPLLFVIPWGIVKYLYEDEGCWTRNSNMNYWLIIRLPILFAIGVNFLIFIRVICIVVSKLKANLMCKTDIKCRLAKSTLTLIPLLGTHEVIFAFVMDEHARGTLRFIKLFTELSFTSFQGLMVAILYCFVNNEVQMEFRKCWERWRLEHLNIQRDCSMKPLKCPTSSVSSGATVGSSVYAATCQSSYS
Method: The agonistic activity of these hybrids were obtained by functional assays using cells expressing the […] and by measuring the receptor-mediated cAMP produced (see supporting information).
In vitro pharmacology (EC50). […] Following incubation, the cells were lysed and the fluorescence acceptor (D2-labeled cAMP) and fluorescence donor (anti-cAMP antibody labeled with europium cryptate) were added.

NEP 24.11 = NEP 24.11 (Homo sapiens, UniProt P08473); assay: in vitro; conditions: pH 8
NEP 24.11, sequence (P08473 whole entry): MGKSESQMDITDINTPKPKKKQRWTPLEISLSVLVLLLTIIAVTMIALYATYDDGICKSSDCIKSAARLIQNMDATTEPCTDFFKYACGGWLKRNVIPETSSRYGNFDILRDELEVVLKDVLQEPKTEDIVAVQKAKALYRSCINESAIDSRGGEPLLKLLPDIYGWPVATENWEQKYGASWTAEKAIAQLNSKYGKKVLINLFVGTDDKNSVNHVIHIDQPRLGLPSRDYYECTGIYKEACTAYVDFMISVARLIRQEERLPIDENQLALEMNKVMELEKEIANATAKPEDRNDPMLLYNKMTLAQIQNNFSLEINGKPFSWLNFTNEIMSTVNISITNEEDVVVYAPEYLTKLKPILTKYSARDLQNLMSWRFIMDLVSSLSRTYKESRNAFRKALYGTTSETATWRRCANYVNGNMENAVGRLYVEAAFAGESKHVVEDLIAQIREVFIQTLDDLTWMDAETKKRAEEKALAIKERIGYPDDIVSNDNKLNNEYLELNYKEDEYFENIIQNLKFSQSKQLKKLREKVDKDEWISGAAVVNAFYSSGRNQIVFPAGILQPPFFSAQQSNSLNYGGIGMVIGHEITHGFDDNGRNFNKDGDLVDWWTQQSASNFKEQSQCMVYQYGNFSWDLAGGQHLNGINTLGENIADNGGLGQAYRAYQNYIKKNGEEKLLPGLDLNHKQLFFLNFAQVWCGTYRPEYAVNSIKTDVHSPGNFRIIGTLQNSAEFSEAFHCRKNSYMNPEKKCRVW
Method: Enzymatic and mouse plasma degradation studies.
Enzymatic degradation (NEP 24.11). Stock solutions of the oligomers were prepared at a concentration of 400 μM in a solution of 50 mM HEPES buffer, 50 mM NaCl, 0.05% Tween-80, pH 8.0. Stock solution of NEP 24.11 was prepared at a concentration of 100 μg/mL in water. Stability of oligomers to NEP 24.11 was assessed by conducting protease reaction in a 96-well plates at 20° C. […] Each compound was also incubated in the absence of the enzyme (12 μL of HEPES buffer and 38 μL of oligomer). At the indicated time (1, 2, 4, 6 and 22 hours) an aliquot of 10 μL was removed from each experimental reaction and pipetting into 100 μL of 1% TFA solution to quench the reaction, (t=0 min was determined using the reaction without enzyme). A portion of the quenched reaction solution was analyzed by HPLC. The time course of peptide degradation was determined by integrating the area of each peak in a series of HPLC traces.

normal mice (C57BL/6J) [2] = assay: Blood glucose experiment in healthy mice; format: in vivo, mouse; set-up: key to In vivo activity (indicator): + = active; +++: + + + = more active; conditions: for In vivo activity (indicator): blood glucose, mice, i.v.; for effect on blood glucose concentration: monitored 6 h
Method: In the first study, we evaluated the effect of the analogues on the blood glucose concentration of normal mice (FIG. 4). The fed mice were treated with the analogues and their blood glucose concentration was monitored before and after dosing for 6 h. […] Indeed, a decrease of blood glucose concentration is observed after 30 min and the effect is preserved for 4 h after dosing.
Blood glucose experiment in healthy mice. After the acclimation period (at least 5 days), mice (male C57BL/6J mice (Charles River laboratories) (8 weeks old, 20-25 g)) were randomized into 10 groups (n=3/group) according to their body weight. They were acutely treated via i.v. route at 10 AM (5 μg/mouse). Blood glucose was measured before dosing and at 30 min, 1, 2, 4, 6 h after dosing in fed conditions.

normal mice (C57BL/6J) [3] = assay: Intra peritoneal glucose tolerance test (IPGTT) in fasted normal mice; format: in vivo, mouse; conditions: for activity in IPGTT 5 min after dosing, 60 min after the glucose challenge: 65 min after dosing, compared to vehicle; for activity in IPGTT 5 min after dosing: glucose 2 g/kg i.p.
Method: In a second study, an IPGTT was performed 30 min after i.v. injections of 1, 14 and the vehicle (FIGS. 5B1 and 5B2). […] A further IPGTT study was done with a glucose challenge after 2 h of the dosing to investigate the prolong activity of hybrids 14, 22, and 23 (FIGS. 5C1 and 5C2).
IPGTT experiments in mice. After the acclimation period (at least 5 days), mice (male C57BL/6J mice (Charles River laboratories) (6 weeks old, 20-24 g)) were randomized into 6 groups (n=6/group) according to their body weight. The mice were fasted for 6 h prior being acutely treated via i.v. route (5 μg/mouse i.v. (200 μg/kg, 50 nmol/kg)) formulated at 20 μg/mL in PBS 1×. The IPGTTs were performed (glucose 2 g/kg i.p.) 5 min, 30 min, 2 h or 4 h after dosing and blood glucose was measured 30, 60, 90 and 120 min after the glucose challenge.

[4] = pH 7.4
Method: Mouse plasma stability. […] The oligomer was then diluted 1/50 with a solution of plasma/PBS pH 7.4 (1:1) to afford a final concentration of 5 μM and incubated at 37° C. (4 μL of the stock solution was diluted with 196 μL of plasma/PBS, pH 7.4, 1:1) Each compound was also incubated in the absence of plasma (196 μL of H2O/PBS, pH 7.4, 1:1)). At the indicated time (20 min and 60 min) an aliquot of 70 μL was removed from each experimental reaction and pipetting into 175 μL of acetonitrile at 0° C. to quench the reaction, (t=0 min was determined using the reaction without plasma). The samples were frozen before analysis. The frozen sample were defrost, stirred with a vortex 5 min and finally centrifuged 5 min at 16° C. The supernatant was analyzed by LC-MS. The time course of oligomer degradation was determined by integrating the area of the peak in the extracted ion chromatogram.

[5] = fed normal mice, 5 μg/mouse i.v.

Compound	Potency (%), percentage of potency (cAMP production) compared to GLP-1-G^2 [1]	Potency (%), percentage of potency compare to GLP-1-G^2 ([1]; cAMP production)	EC50 ([1]; receptor-mediated cAMP production, βTC6 cells)	half-life at […] (NEP 24.11)	In vivo activity (indicator) (normal mice (C57BL/6J) [2])	time the decrease of blood glucose is preserved after dosing (normal mice (C57BL/6J) [2]; [5])	effect on blood glucose concentration (normal mice (C57BL/6J) [2]; [5])	activity in IPGTT 5 min after dosing, 60 min after the glucose challenge (normal mice (C57BL/6J) [3])	IPGTT 2 h after dosing (normal mice (C57BL/6J) [3]; fasted mice, 200 μg/kg i.v.)	IPGTT 4 h after dosing (normal mice (C57BL/6J) [3]; fasted mice, 200 μg/kg i.v.)	activity in IPGTT 30 min after dosing (normal mice (C57BL/6J) [3]; fasted mice, 200 μg/kg i.v.)	activity in IPGTT 5 min after dosing (normal mice (C57BL/6J) [3]; fasted mice, 200 μg/kg i.v.)	times less potent than GLP-1 ([1]; cAMP production)	EC50 [1]	half-life (NEP 24.11)	Mouse Plasma t1/2 [4]
CC[C@H](C)[C@H](NC(=O)[C@H](Cc1ccccc1)NC(=O)NC[C@H](C)NC(=O)NC[C@H](C)NC(=O)NC[C@H](C)NC(=O)[C@H](CCC(N)=O)NC(=O)CNC(=O)[C@H](CCC(=O)O)NC(=O)[C@H](CC(C)C)NC(=O)[C@H](Cc1ccc(O)cc1)NC(=O)[C@H](CO)NC(=O)[C@H](CO)NC(=O)[C@@H](NC(=O)[C@H](CC(=O)O)NC(=O)[C@H](CO)NC(=O)[C@@H](NC(=O)[C@H](Cc1ccccc1)NC(=O)[C@@H](NC(=O)CNC(=O)[C@H](CCC(=O)O)NC(=O)CNC(=O)[C@@H](N)Cc1c[nH]cn1)[C@@H](C)O)[C@@H](C)O)C(C)C)C(=O)N[C@@H](C)C(=O)N[C@@H](Cc1c[nH]c2ccccc12)C(=O)N[C@@H](CC(C)C)C(=O)N[C@H](C(=O)N[C@@H](CCCCN)C(=O)NCC(=O)N[C@@H](CCCNC(=N)N)C(=O)NCC(N)=O)C(C)C [Compound 14, GG2[A^UA^UA^U]^18-21] (I: H-HGEGTFTSDVSSYLEGQ / II: FIAWLVKGRG-NH2; linker I:C-II:N via X1)	6%	6%	4.1 nM	4.9 h	+++	4 h	improved efficacy	still active	good control of the blood glucose concentration	still active after 6 h of the treatment	full activity	active				
CC[C@H](C)[C@H](NC(=O)[C@H](Cc1ccccc1)NC(=O)[C@H](CCC(=O)O)NC(=O)[C@H](CCCCN)NC(=O)[C@H](C)NC(=O)[C@H](C)NC(=O)[C@H](CCC(N)=O)NC(=O)CNC(=O)[C@H](CCC(=O)O)NC(=O)[C@H](CC(C)C)NC(=O)[C@H](Cc1ccc(O)cc1)NC(=O)[C@H](CO)NC(=O)[C@H](CO)NC(=O)[C@@H](NC(=O)[C@H](CC(=O)O)NC(=O)[C@H](CO)NC(=O)[C@@H](NC(=O)[C@H](Cc1ccccc1)NC(=O)[C@@H](NC(=O)CNC(=O)[C@H](CCC(=O)O)NC(=O)CNC(=O)[C@@H](N)Cc1c[nH]cn1)[C@@H](C)O)[C@@H](C)O)C(C)C)C(=O)N[C@@H](C)C(=O)N[C@@H](Cc1c[nH]c2ccccc12)C(=O)N[C@@H](CC(C)C)C(=O)N[C@H](C(=O)N[C@@H](CCCCN)C(=O)NCC(=O)N[C@@H](CCCNC(=N)N)C(=O)NCC(N)=O)C(C)C [Compound 1, GLP-1-G^2, reference compound]	100%	100%			+		decreased of blood glucose concentration after 30 min	no more significant effect	IPGTT curve similar to the vehicle		inactive	active	2.5 times	0.24 nM	3.6 h	0.267 h
